Columns and labels:
[1] = target: T1, GABAA2 receptors (α2, β3, γ2 receptor subunits) (Homo sapiens, UniProt P18507+P47869); test: biochemical; settings: [3H]-Flunitrazepam ~2 nM, α2β3γ2 Sf9 membranes, 1 hr at 4° C.; read-out: GABAA2 Binding Ki
T1 construct: host or cells: Sf9 cells (membranes)
Method: In some embodiments, the binding test was directed to a subtype of GABAA receptors, such as GABAA1 receptors (i.e., those containing the α1 subunit), GABAA2 receptors (i.e., those containing the α2 subunit), GABAA3 receptors (i.e., those containing the α3 subunit) and GABAA5 receptors (i.e., those containing the α5 subunit).
[formula] Method FF GABAA2 Binding Method Reagents
Assay and Wash Buffer: 50 mM Tris-Citrate, 200 mM NaCl, pH 7.8
Compounds at 10 mM in DMSO: Put 75 μl in column 1 of compound plate.
Flumazenil, 10 mM (for NSB)
[^3H]-Flunitrazepam (Cat #NET567): Prepare 10× stock=20 nM, [F} in assay=˜2 nM
1. […] Add 5 ul of 30 uM flumazenil to wells 12 D-E for 50% control wells.
2. Spot 2 μl of compound dilutions into dry plate (Automation Program 3). Manually spot 2 μl 10 mM flumazenil into wells 12 F-H for nonspecific control.
3. Make 1:100 dilution in assay buffer (2 μl into 200 μl) and dispense 25 μl compound into assay plates (Automation Program 4).
4. Dispense 200 μl membranes into assay plate (Automation Program 5).
5. Add 25 μl [^3H]-Flunitrazepam (Automation Program 6). Incubate for 1 hr at 4° C.
6. Collect membranes on a cell harvester onto GF/B filter plates (pre-wet with dH2O and wash 5×400 μl/well, with cold assay buffer. (First 3 washes are considered hot; last two are cold.)
7. Dry plates for 2-3 hours at RT.
8. Add 40 μl Microsecond 40/well (Automation Program 7); seal plates. Count on a Top Count.
Data is analyzed by calculating percent of control, IC50, and Kid in an Lift template. The following formula is used in the templates: […]

[2] = target: T2, GABAA1 (human α1β2γ2 GABAA receptor) (Homo sapiens, UniProt P14867+P18507); test: Two-electrode voltage-clamp in Xenopus oocytes, potentiation of GABA EC10 current, GABAA1; format: cell-based; settings: percentage potentiation of GABA EC10 current divided by that of diazepam
T2 construct: expressed in transfected cells; host or cells: Xenopus laevis oocytes injected with capped cRNA
T2 sequence (P14867 28-456): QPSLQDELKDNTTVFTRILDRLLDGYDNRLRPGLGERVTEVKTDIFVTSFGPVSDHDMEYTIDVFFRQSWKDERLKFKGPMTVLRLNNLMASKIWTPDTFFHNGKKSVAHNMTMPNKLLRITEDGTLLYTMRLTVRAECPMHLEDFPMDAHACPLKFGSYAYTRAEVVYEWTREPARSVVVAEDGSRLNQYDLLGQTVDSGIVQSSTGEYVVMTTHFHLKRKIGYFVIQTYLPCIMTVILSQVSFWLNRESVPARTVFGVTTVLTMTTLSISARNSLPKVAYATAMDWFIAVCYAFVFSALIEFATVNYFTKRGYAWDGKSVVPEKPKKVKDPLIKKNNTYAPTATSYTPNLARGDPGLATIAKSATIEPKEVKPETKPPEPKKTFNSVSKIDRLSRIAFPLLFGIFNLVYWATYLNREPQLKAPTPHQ
T2 sequence (P47870 25-512 partner limits assumed): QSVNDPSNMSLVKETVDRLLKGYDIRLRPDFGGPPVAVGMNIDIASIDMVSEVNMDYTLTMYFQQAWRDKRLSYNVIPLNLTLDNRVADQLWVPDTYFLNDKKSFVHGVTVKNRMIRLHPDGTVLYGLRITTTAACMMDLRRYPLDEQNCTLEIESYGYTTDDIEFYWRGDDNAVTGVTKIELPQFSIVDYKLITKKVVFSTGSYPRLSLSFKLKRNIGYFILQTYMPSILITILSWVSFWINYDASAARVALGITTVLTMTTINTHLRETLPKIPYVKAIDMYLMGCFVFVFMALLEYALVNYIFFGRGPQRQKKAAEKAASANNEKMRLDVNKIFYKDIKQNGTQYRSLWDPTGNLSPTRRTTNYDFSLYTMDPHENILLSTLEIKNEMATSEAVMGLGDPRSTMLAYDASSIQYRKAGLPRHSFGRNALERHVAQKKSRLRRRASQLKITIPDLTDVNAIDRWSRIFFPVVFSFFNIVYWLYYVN
T2 sequence (P18507 40-475): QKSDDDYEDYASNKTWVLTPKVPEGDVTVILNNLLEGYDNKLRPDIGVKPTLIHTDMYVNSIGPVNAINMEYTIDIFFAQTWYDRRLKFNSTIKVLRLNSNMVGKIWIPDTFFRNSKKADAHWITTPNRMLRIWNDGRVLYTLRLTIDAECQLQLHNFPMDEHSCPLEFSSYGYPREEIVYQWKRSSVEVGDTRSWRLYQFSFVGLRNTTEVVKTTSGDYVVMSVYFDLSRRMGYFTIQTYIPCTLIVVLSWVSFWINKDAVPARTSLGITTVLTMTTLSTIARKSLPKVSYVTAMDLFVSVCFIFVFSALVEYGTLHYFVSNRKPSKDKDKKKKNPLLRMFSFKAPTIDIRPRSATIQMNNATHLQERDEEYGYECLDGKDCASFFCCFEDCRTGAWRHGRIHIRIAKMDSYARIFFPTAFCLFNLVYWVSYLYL
From the text: (§1) Presently available GABAA modulator anxiolytics work via interactions at the classical benzodiazepine binding site. To a large degree these anxiolytics lack GABAA receptor subtype-selectivity. The subtype-selective GABAA receptor modulators may offer more advantages. […] Sedation, a side-effect common to all marketed benzodiazepines, is believed to be mediated by interactions at GABAARs containing the α1 subunit. To develop anxiolytics with minimal liabilities due to interactions with other subunits, an electrophysiological assay was developed to screen modulatory effects of various compounds on different GABA subunit combinations heterologously expressed in Xenopus oocytes.
(§2) GABAA receptors were heterologously expressed in Xenopus oocytes by injecting cRNA corresponding to human α1, α2, α3, α5, β2, β3 and γ2 subunits of the GABAA receptor genes. The specific subunit combinations (subtypes) were as follows: α1β2γ2, α2β3γ2, α3β3γ2, and α5β3γ2. The EC10 of GABA was approximated for each cell. Stability of GABA-mediated (EC10) current was established. Modulatory effect of test compound was determined and compared across subtypes. […] Thus, the assay can characterize modulatory effects and determine subtype selectivity of test compounds on major subtypes of GABAA receptors.
(§3) Xenopus laevis frogs (Xenopus I, Kalamazoo, MI) were anesthetized using 0. […] Surgically removed ovarian lobes were teased out in OR2 solution (82 NaCl, 2.5 KCl, 5 HEPES, 1.5 NaH2PO4, 1 MgCl2, 0.1 EDTA, in mM, pH 7.4). The acolytes were deflocculated by incubation in 25 mL OR2 containing 0.2% collagens 1A (SIGMA) two times for about 60 minutes on a platform shaker and stored in Leibovitz's L-15 medium. Acolytes were injected the following day in 0.5× Leibovitz's L-15 medium containing […] gentamycin, 10 units/ml penicillin, and […] streptomycin.
(§4) Capped cRNAs from the linear zed vectors containing human α1, β2 and γ2 subunits of the GABAA receptor genes were mixed in ratio of […]. Acolytes were injected with 25-50 nL of mixed RNA with an appx molar ratio for α1, β2 and γ2 as 1:1:10. Acolyte recordings were done 2-10 days after injection. The same methods apply to subtypes derived from α2β3γ2, α3β3γ2, and α5β3γ2, except for 1:1:1 ratio was used for α, β, and γ subunits.
(§5) All measurements were done in a medium containing ND-96 (96 NaCl, 2 KCl, 1.8 CaCl2.2H2O, 1 MgCl2.6H2O, 5 HEPES, in mM, pH 7.5). Two-electrode voltage-clamp recording was carried out using Opus press amplifier (Axon Instruments, Foster City, Calif.), which allows simultaneous recording from 8 acolytes. Acolytes were impaled with two electrodes of 1-2 MΩ tip resistance when filled with 3M KCl. Recordings were begun when membrane potential became stable at potentials negative to −50-−60 mV. Membrane potential was held at −60 mV. […] The concentration of GABA corresponded to the EC10 value calculated for each acolyte. The modulator pulses started 30 s before the GABA pulse so as to allow preoccupation with the modulator. A set of 3 pulses with just GABA without modulator was given prior to the modulator-containing pulses to define the baseline GABA response. Two acolytes per each experiment were dedicated to observe the effect of diazepam on GABA response to ensure the presence of γ subunit in the GABAA pantomimic complex, which imparts diazepam sensitivity to the complex.
(§6) Current amplitude (i) was measured from baseline to peak using Clamp fit (Axon Inst., Foster City, Calif.). Potentiating was calculated as percent change from the baseline GABA current flux 100×(imod/icontrol)−1) where imod=current mediated by modulator+GABA and icontrol=current mediated by GABA alone. […] Similarly, a value of −50% potentiating means the presence of modulator caused a 50% decrease in the control current.

[3] = target: T3, GABAA2 (human α2β3γ2 GABAA receptor) (Homo sapiens, UniProt P18507+P47869); test: Two-electrode voltage-clamp in Xenopus oocytes, potentiation of GABA EC10 current, GABAA2; format: cell-based; settings: percentage potentiation of GABA EC10 current divided by that of diazepam
T3 construct: expressed in transfected cells; host or cells: Xenopus laevis oocytes injected with capped cRNA
T3 sequence (P47869 29-451): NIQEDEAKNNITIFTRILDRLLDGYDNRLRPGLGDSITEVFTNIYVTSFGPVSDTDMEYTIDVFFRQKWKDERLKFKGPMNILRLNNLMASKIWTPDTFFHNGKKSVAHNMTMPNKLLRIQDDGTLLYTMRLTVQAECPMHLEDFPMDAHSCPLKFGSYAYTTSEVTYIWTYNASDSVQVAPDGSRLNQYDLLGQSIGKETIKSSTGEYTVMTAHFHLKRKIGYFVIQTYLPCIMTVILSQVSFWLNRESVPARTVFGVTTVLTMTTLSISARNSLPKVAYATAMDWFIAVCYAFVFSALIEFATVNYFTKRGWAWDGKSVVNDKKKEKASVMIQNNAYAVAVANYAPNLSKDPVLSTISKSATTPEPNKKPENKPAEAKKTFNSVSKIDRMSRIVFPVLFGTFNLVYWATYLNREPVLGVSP
T3 sequence (P28472 26-473 partner): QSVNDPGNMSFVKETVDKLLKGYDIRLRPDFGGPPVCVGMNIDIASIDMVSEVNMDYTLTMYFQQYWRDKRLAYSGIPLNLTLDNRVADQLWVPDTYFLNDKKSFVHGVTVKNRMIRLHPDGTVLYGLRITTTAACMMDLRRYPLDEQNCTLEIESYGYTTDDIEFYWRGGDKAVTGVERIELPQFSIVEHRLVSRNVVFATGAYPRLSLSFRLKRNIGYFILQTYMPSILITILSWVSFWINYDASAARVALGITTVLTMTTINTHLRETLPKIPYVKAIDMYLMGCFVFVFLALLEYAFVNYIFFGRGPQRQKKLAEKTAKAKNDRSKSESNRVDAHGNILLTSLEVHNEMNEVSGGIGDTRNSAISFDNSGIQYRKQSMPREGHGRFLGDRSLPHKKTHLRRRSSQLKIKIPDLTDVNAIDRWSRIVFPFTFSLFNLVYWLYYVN
T3 sequence (P18507 40-475): as the sequence (P18507 40-475) above
From the text: as §1, §2, §3, §4, §5, §6

T1 sequence (P47869 29-451): as the sequence (P47869 29-451) above
T1 sequence (P28472 26-473 partner): as the sequence (P28472 26-473 partner) above
T1 sequence (P18507 40-475): as the sequence (P18507 40-475) above

Compound | Ki [1] [nM] | Relative Potentiation for GABAA1 [2] | Relative Potentiation for GABAA2 [3]
CCCNC(=O)c1nnc2c(-c3cccc(C(=O)N4CCC4)c3)cccc2c1N | 3.44 | 0.19 | −0.0075
CCCNC(=O)c1nnc2c(-c3cccc(OC)c3OC)cccc2c1N | 7.49 | −0.065 | 0.013
C=CCNC(=O)c1nnc2c(-c3cc(OC)ccc3OC)cccc2c1N | 8.91 | 0.0075 | 0.33
CCCNC(=O)c1nnc2c(-c3cc(C)ccc3OC)c(F)ccc2c1N | 0.937 | 0.23 | 0.37
CCCNC(=O)c1nnc2c(-c3cccc(F)c3OC)cccc2c1N | 10.9 | 0.11 | 0.11
CCCNC(=O)c1nnc2c(-c3ccc(F)cc3F)cccc2c1N | 1.72 | −0.088 | 0.12
CCCNC(=O)c1nnc2c(-c3ccc(OC)c(OC)c3OC)cccc2c1N | 6.75 | 0.47 | 0.33
CCCNC(=O)c1nnc2c(-c3ccc(F)c(-c4ccc(F)cc4C#N)c3)cccc2c1N | 150 | 0.09 | 0.023
CCCNC(=O)c1nnc2c(-c3ccc(OC)cc3F)c(F)ccc2c1N | 0.613 | 0.053 | 0.18
CCCNC(=O)c1nnc2c(-c3cnc(OC)nc3OC)c(Cl)ccc2c1N | 2.73 | 0.19 | 0.29
CCCNC(=O)c1nnc2c(-c3cc(Cl)ccc3Cl)cccc2c1N | 0.71 | 0.12 | 0.21
CCCNC(=O)c1nnc2c(-c3cc(F)ccc3F)c(F)ccc2c1N | 45.8 | 0.013 | 0.098
CCCNC(=O)c1nnc2c(-c3ccc(F)cc3OC)c(F)ccc2c1N | 0.565 | −0.028 | 0.18
CCCNC(=O)c1nnc2c(-c3ccc(Cl)cc3)c(F)ccc2c1N | 8.72 | 0.02 | 0.19
CCCNC(=O)c1nnc2c(-c3cccnc3OC)cccc2c1N | 2.1 | 0.2 | 0.097
CCNC(=O)c1nnc2c(-c3cnc(OC)nc3OC)cccc2c1N | 14.4 | 0.005 | 0.35
CCCNC(=O)c1nnc2c(-c3cccc(C#N)c3)cccc2c1N | 1.18 | 0.088 | 0.31
CCCNC(=O)c1nnc2c(-c3cc(F)ccc3C)c(F)ccc2c1N | 0.735 | 0.032 | 0.12
CCCNC(=O)c1nnc2c(-c3cccc(Cl)c3)cccc2c1N | 12.3 | 0.18 | 0.53
CCCNC(=O)c1nnc2c(-c3cnccn3)cccc2c1N | 20.4 | −0.067 | −0.01
CCCNC(=O)c1nnc2c(-c3cccc(S(C)(=O)=O)c3)cccc2c1N | 10.4 | 0.34 | 0.26
CCCNC(=O)c1nnc2c(-c3ccc(OC)nc3OC)cccc2c1N | 0.56 | 0.17 | 0.25
CCCNC(=O)c1nnc2c(-c3ccc(OC)c(F)c3)cccc2c1N | 20.2 | 0.03 | 0.19
CCCNC(=O)c1nnc2c(-c3ccc4ncccc4c3)cccc2c1N | 6.4 | 0.1 | 0.23
CCCNC(=O)c1nnc2c(-c3cc(C(F)(F)F)ccc3Cl)cccc2c1N | 1.36 | 0.47 | 0.59
CCCNC(=O)c1nnc2c(-c3ccc(F)cc3OC)cccc2c1N | 4.34 | 0.12 | 0.38
CCCNC(=O)c1nnc2c(-c3cnc(OC)c(F)c3)cccc2c1N | 22.1 | −0.012 | 0.14
CCCNC(=O)c1nnc2c(-c3ccc(OC)cc3C(F)(F)F)cccc2c1N | 2.42 | 0.12 | 0.16
CCCNC(=O)c1nnc2c(-c3ccsc3)cccc2c1N | 18.6 | −0.26 | 0.038
